According to patent US4904672A, “Derivatives of 3-hydroxyazabenzo[b]thiophene useful as 5-lipoxygenase inhibitors” (Merck & Co., Inc., priority 1988, dated 1990):

How the values were obtained:
PMN 5-lipoxygenase = target: T1, PMN 5-lipoxygenase (Rattus norvegicus, UniProt P12527); assay: Inhibition of PMN 5-lipoxygenase in the rat (LTB4 by RIA, A23187-stimulated PMN); assay type: cell-based, rat (male Sprague-Dawley); conditions: for inhibition at 30 µg/mL: dose 0.03 mg/ml; for inhibition at 1000 µg/mL: dose 1 mg/ml; for inhibition at 10 µg/mL: dose 0.01 mg/ml
T1 sequence (P12527 1-673): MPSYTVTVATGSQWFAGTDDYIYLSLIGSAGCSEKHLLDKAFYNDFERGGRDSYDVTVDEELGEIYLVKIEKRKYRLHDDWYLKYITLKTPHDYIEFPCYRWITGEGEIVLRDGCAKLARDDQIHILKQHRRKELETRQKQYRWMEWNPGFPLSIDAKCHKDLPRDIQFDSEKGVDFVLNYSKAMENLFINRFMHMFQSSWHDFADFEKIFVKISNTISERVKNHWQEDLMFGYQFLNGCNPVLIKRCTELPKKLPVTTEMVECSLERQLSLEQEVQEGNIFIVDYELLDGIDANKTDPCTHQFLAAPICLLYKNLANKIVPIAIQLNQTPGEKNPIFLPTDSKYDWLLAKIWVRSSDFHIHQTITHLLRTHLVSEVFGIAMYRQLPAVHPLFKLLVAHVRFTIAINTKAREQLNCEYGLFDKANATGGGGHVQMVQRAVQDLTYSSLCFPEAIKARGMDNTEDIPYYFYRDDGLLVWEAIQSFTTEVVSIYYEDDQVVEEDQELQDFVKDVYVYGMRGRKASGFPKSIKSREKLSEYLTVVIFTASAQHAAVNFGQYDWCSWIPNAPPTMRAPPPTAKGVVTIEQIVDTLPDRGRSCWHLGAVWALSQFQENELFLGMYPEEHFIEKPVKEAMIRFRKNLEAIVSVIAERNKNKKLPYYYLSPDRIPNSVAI
Protocol: 2. Inhibition of PMN 5-lipoxygenase in the rat Methods
Male Sprague-Dawley rates under ether anesthesia were injected i.p. with 8 mls of 12% aqueous sodium caseinate. After 15-24 hours the animals were sacrificed with CO2 and the peritoneal cavities were lavaged with Eagles MEM with Earles salts and containing L-glutamine and 30 mM HEPES. The pH was adjusted to 7.4. The lavage fluid was centrifuged for 5 minutes at 350×g at room temperature. The cells were resuspended in fresh medium and filtered through lens paper. The cells were pelleted again and reconstituted to concentration of 1×10^7 cells/ml with fresh medium.
The experiments were run as follows: 0.5μ of test compound in DMSO or 0.5 μl DMSO alone was added to reaction tubes. 0.5 ml aliquots of the stirred PMN suspension maintained at 37° C. were then added. After 2 minutes, 0.5 μl of 10 mM A23187 (final concentration=10 μM) or 0.5 μl of DMSO was added and allowed to incubate for 4 additional minutes at 37° C. The reaction was stopped by the addition of 0.5 ml of cold methanol. The precipitated proteins were removed by centrifugation and the supernatant fluid was analyzed via RIA or HPLC.
Radioimmunoassay determinations of LTB4
Radioimmunoassays were performed using the dextran-coated charcoal binding method as described by J. L. Humes in Methods for Studying Mononuclear Phagocytes (Eds. D. Adams et al.) p. 641, Academic Press, N.Y. (1981).
Aliquots, 2 μl, of the supernatant fluids were added to assay tubes and incubated for 10 minutes at 37° C. to remove methanol. Fifty μl of tissue culture medium M-199 containing 1 percent heat-inactivated-porcine serum was then added to each tube. Standard amounts of LTB4 were also prepared in this medium so that 50 μl aliquots contained 25-1000 pg. Antisera to LTB4 was diluted 1:3000 with 10 mM potassium phosphate, pH 7.3 containing 1 mM ethylenediaminetetracetic acid and 0.25 mM thimerasol (PET buffer). Aliquots, 100 μl, of the diluted antisera were added to both standard and unknown tubes and incubated at room temperature for 0.5 hour. (5,6,8,9,11,12,14,15-^3 H)-LTB4 (Amersham, 150 Ci/mMol) was diluted with PET to a concentration of 1 nCi/ml. Aliquots, 100 μl , were added and the mixture incubated for 2 hours at room temperature or alternatively overnight at 4° C. One ml of dextran-coated charcoal solution is added to all tubes. After centrifugation for 10 minutes at 1000×g the radioactivity in the supernatant fluid was determined.
The dextran-coated charcoal removes the unbound ^3 H-LTB4. Therefore in this procedure the antibody-bound-^3 H-LTB4 is measured. The RIA^4 determinations are performed on single samples.

[1] = tested on: Brewer's yeast-induced hyperalgesia (pain response); assay: Brewer's Yeast Hyperalgesia Assay in the rat; assay type: in vivo, rat (female Sprague-Dawley); conditions: 3 mg/kg p.o.
Protocol: In this assay, which is sensitive to inhibition by lipoxygenase and cyclooxygenase inhibitors, compounds of formula I reduced the pain response induced by Brewer's yeast (Table 1a).
Groups of 10 female Sprague-Dawley rats, weighing 35-50 grams (Charles River Breeding Laboratories), were fasted overnight prior to testing. For each animal, 0.1 ml of the edema-inducing Brewer's yeast suspension (5% homogenate in physiological saline) was injected into the right hindpaw. Pain threshold was measured by applying pressure to the plantar surface of the hindpaw by means of a compressed air driven piston with a 2 mm. tip. Testing was carried out 3, 4, and 5 hours after the yeast injection. Compounds, prepared as homogenates in either 1% methylcellulose or aqueous vehicle, were administered orally 60 minutes before testing. A group of vehicle treated control animals was included in each experiment. Squeak pressure thresholds were measured and recorded for the compound and vehicle-treated groups of rats 3, 4, and 5 hours after administration of the Brewer's yeast (60 minutes after compound treatment). The estimation of analgesia was as follows: 1. the mean response pressure for the daily vehicle control group in the normal and inflammed foot was calculated; 2. for each compound treatment group, the number of animals with response pressures equal to or greater than 25 mm Hg was noted. These animals were considered to be analgesic.

Row | SMILES | inhibition at 100 µg/mL (PMN 5-lipoxygenase; dose 0.1 mg/ml) [%] | inhibition at 300 µg/mL (PMN 5-lipoxygenase; dose 0.3 mg/ml) [%] | inhibition at 1000 µg/mL (PMN 5-lipoxygenase) [%] | inhibition at 37 µg/mL (PMN 5-lipoxygenase; dose 0.037 mg/ml) [%] | also measured
1 | COc1ccc(-c2sc3cc(C)nc(C)c3c2OC(C)=O)cc1 | 45 | 75 |  |  | inhibition at 30 µg/mL (PMN 5-lipoxygenase): 4%
2 | COc1ccc(-c2sc3cccnc3c2OC(C)=O)cc1 [N=4, R=(CO)CH3, X1=H, X2=p-OCH3, 3-Acetyloxy-2-(4-methoxyphenyl)-4-azabenzo[b]thiophene] | 21 | 73 | 100 |  | 
3 | CC(=O)Oc1c(-c2ccccc2)sc2ccncc12 [N=5, R=(CO)CH3, X1=H, X2=H, 3-Acetyloxy-5-aza-2-phenylbenzo[b]thiophene] | 97 | 100 |  | 58 | 
4 | COc1ccc(-c2sc3ccncc3c2OC(C)=O)cc1 [N=5, R=(CO)CH3, X1=H, X2=p-OCH3, 3-Acetyloxy-5-aza-2-(4-methoxyphenyl)benzo[b]thiophene] | 80 | 99 |  | 22 | % Inhibition (PMN 5-lipoxygenase) (PMN 5-lipoxygenase; dose 0.1 mg/ml): 60%; % Inhibition (PMN 5-lipoxygenase) (PMN 5-lipoxygenase; dose 0.3 mg/ml): 100%
5 | Cc1cc2sc(-c3ccccc3)c(O)c2c(C)n1 [N=5, R=H, X1=4-CH3,6-CH3, X2=H] | 43 | 90 | 99 |  | 
6 | COc1ccc(-c2sc3ccncc3c2O)cc1 [N=5, R=H, X1=H, X2=p-OCH3, 5-Aza-3-hydroxy-2-(4-methoxyphenyl)-benzo[b]thiophene] |  | 100 |  |  | inhibition at 400 µg/mL (PMN 5-lipoxygenase; dose 0.4 mg/ml): 63%
7 | COc1ccc(-c2sc3cnccc3c2O)cc1 [N=6, R=H, X1=H, X2=p-OCH3, 3-Hydroxy-2-(4-methoxyphenyl)-6-azabenzo[b]thiophene] | 79 | 100 |  |  | inhibition at 30 µg/mL (PMN 5-lipoxygenase): 45%
8 | CC(=O)Oc1c(-c2ccccc2)sc2nccc(Cl)c12 [N=7, R=(CO)CH3, X1=4-Cl, X2=H] | 32 |  | 100 | 22 | 
9 | CC(=O)Oc1c(-c2ccccc2)sc2nc(Cl)ccc12 [N=7, R=(CO)CH3, X1=6-Cl, X2=H] | 63 | 82 | 100 |  | 
10 | CC(=O)Oc1c(-c2ccccc2)sc2ncccc12 [N=7, R=(CO)CH3, X1=H, X2=H, 7-aza-3-acetyloxy-2-phenyl-benzo[b]thiophene] | 100 |  |  | 95 | inhibition at 10 µg/mL (PMN 5-lipoxygenase): 40%
11 | COc1cccc(-c2sc3ncccc3c2OC(C)=O)c1 [N=7, R=(CO)CH3, X1=H, X2=m-OCH3] | 97 | 100 |  | 52 | 
12 | COc1ccccc1-c1sc2ncccc2c1OC(C)=O [N=7, R=(CO)CH3, X1=H, X2=o-OCH3] | 73 | 100 |  |  | inhibition at 30 µg/mL (PMN 5-lipoxygenase): 33%
13 | CC(=O)Oc1c(-c2ccc(C(F)(F)F)cc2)sc2ncccc12 [N=7, R=(CO)CH3, X1=H, X2=p-CF3] | 61 | 100 | 100 |  | 
14 | CC(=O)Oc1c(-c2ccc(C#N)cc2)sc2ncccc12 [N=7, R=(CO)CH3, X1=H, X2=p-CN] | 77 | 100 |  | 39 | 
15 | CC(=O)Oc1c(-c2ccc(F)cc2)sc2ncccc12 [N=7, R=(CO)CH3, X1=H, X2=p-F, 7-aza-3-acetyloxy-2-(4-fluorophenyl)-benzo[b]thiophene] | 100 |  |  | 49 | inhibition at 10 µg/mL (PMN 5-lipoxygenase): 24%
16 | COc1ccc(-c2sc3ncccc3c2OC(C)=O)cc1 [N=7, R=(CO)CH3, X1=H, X2=p-OCH3] | 100 |  |  | 59 | % Inhibition (PMN 5-lipoxygenase) (PMN 5-lipoxygenase; dose 0.037 mg/ml): 70%
17 | CC(=O)Oc1c(-c2ccccc2)sc2nc(C(C)(C)C)ccc12 [N=7, R=(CO)CH3, X1=t-Bu, X2=H, 3-Acetoxy-6-(1,1-dimethylethyl)-2-phenyl-7-azabenzo[b]thiophene] | 34 | 70 | 95 |  | inhibition at 30 µg/mL (PMN 5-lipoxygenase): 23%
18 | Oc1c(-c2ccccc2)sc2ncccc12 [N=7, R=H, X1=H, X2=H, 3-Hydroxy-2-phenyl-7-azabenzo[b]thiophene] | 100 |  |  |  | inhibition at 12 µg/mL (PMN 5-lipoxygenase; dose 0.012 mg/ml): 32%
19 | COc1cccc(-c2sc3ncccc3c2O)c1 [N=7, R=H, X1=H, X2=m-OCH3, 7-Aza-3-hydroxy-2-(3-methoxyphenyl)-benzo[b]thiophene] | 100 | 100 |  |  | inhibition at 30 µg/mL (PMN 5-lipoxygenase): 76%
20 | Oc1c(-c2ccc(F)cc2)sc2ncccc12 [N=7, R=H, X1=H, X2=p-F] | 99 | 100 |  | 88 | inhibition at 10 µg/mL (PMN 5-lipoxygenase): 32%
21 | COc1ccc(-c2sc3ncccc3c2O)cc1 [N=7, R=H, X1=H, X2=p-OCH3] | 100 |  |  | 24 | 
22 | CC(C)(C)c1ccc2c(O)c(-c3ccccc3)sc2n1 [N=7, R=H, X1=t-Bu, X2=H, 6-(1,1-dimethylethyl)-3-hydroxy-2-phenyl-7-azabenzo[b]thiophene] | 53 | 98 | 98 |  | 
23 | COCC(=O)Oc1c(-c2ccccc2)sc2ncccc12 [R=(CO)CH2 OCH3, X1=H, X2=H] |  |  |  |  | % Inhibition (yeast hyperalgesia) [1]: 50%
24 | CC(=O)Oc1c(-c2ccccc2)sc2nc(Cl)ccc12 [R=(CO)CH3, X1=6-Cl, X2=H] |  |  |  |  | % Inhibition (yeast hyperalgesia) [1]: 40%
25 | COc1ccc2c(OC(C)=O)c(-c3ccccc3)sc2n1 [R=(CO)CH3, X1=6-OCH3, X2=H] |  |  |  |  | % Inhibition (yeast hyperalgesia) [1]: 60%
26 | CC(=O)Oc1c(-c2ccccc2)sc2ncccc12 [R=(CO)CH3, X1=H, X2=H, 7-aza-3-acetyloxy-2-phenyl-benzo[b]thiophene] |  |  |  |  | % Inhibition (yeast hyperalgesia) [1]: 60%
27 | CC(=O)Oc1c(-c2ccc(F)cc2)sc2ncccc12 [R=(CO)CH3, X1=H, X2=p-F, 7-aza-3-acetyloxy-2-(4-fluorophenyl)-benzo[b]thiophene] |  |  |  |  | % Inhibition (yeast hyperalgesia) [1]: 70%
28 | Oc1c(-c2cccnc2)sc2ncccc12 [drawing 24, N=7, R=H, X1=H, X2=H] | 39 | 94 | 98 |  | inhibition at 30 µg/mL (PMN 5-lipoxygenase): 0%
29 | COc1ccc(-c2sc3c[n+]([O-])ccc3c2OC(C)=O)cc1 [drawing 25, N=6, R=(CO)CH3, X1=H] | 33 | 49 | 90 |  | 
